Source: patent US11926574B2, “Dimethoxyphenylalkylamine activators of serotonin receptors” (Entheogenix Biosciences, Inc., priority 2021, dated 2024)
Where a name gives a salt, the structure may show the parent alone. Read-outs that look alike come from different tables or passages of the source.

Experiments:
Type in all cases: cell-based
5-HT2C = target: T1, 5-HT2C (Homo sapiens, UniProt P28335); assay: Calcium mobilization assay (Gq signaling), 5-HT2C
T1 sequence (P28335 33-458): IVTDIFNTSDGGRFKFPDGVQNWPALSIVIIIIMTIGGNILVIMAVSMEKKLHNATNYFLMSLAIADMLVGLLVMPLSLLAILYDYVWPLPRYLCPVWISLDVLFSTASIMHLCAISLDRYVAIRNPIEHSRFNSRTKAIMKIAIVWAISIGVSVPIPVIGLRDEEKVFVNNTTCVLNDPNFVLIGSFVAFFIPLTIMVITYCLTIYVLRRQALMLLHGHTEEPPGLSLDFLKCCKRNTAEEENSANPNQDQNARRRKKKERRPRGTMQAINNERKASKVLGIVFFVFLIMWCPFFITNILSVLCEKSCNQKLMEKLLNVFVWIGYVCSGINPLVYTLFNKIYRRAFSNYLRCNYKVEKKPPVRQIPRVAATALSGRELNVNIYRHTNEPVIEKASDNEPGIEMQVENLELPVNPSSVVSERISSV
Experimental: (§1) The Calcium No-Wash^PLUS assay monitors the activation of a GPCR via Gq secondary messenger signaling in a live cell, non-imaging assay format. Calcium mobilization in PathHunter® cell lineSOR other cell lines stably expressing Gq-Coupled GPCR5 is monitored using a calcium-sensitive dye that is loaded into cells. GPCR activation by a compound results in the release of calcium from intracellular stores and an increase in dye fluorescence that is measured in real-time.
(§2) Cell lines expressing the GPCR of interest were expanded from freezer stocks according to standard procedures. […] Compound agonist activity was measured on a FLIPR Tetra (MDS). Calcium mobilization was monitored for 2 minutes and 10 μL 4× sample in HB SS/20 mM Hepes was added to the cells 5 seconds into the assay. Compound activity data was analyzed using CBIS data analysis suite (ChemInnovation, California). For agonist mode assays, percentage activity is calculated using the following formula: % Activity=100%×(mean RFU of test sample−mean RFU of vehicle control)/(mean MAX RFU control ligand−mean RFU of vehicle control). […]
(§3) Compounds 1-1·HCl, 1-2 and 2-1 were assessed for biological activity across a panel of 5-HT receptors including 5-HT2A, 5-HT2B, 5-HT2C and 5-HT1A. Biased signaling was assessed by monitoring both intracellular Gq-mediated calcium release, as well as beta-arrestin activation and recruitment to the GPCR.

5-HT2B = 5-HT2B (Homo sapiens, UniProt P41595); assay: Calcium mobilization assay (Gq signaling), 5-HT2B
Experimental: as §1
Cell lines expressing the GPCR of interest were expanded from freezer stocks according to standard procedures. Cells were seeded in a total volume of 20 μL into black-walled, clear-bottom, Poly-D-lysine coated 384-well microplates and incubated at 37° C. for the appropriate time prior to testing. Assays were performed in 1× Dye Loading Buffer consisting of 1× Dye, 1× Additive A and 2.5 mM Probenecid in HB SS/20 mM Hepes. Probenicid was prepared fresh. Cells were loaded with dye prior to testing. Media was aspirated from cells and replaced with 20 μL Dye Loading Buffer. Cells were incubated for 30-60 minutes at 37° C. For agonist determination, cells were incubated with sample to induce response. After dye loading, cells were removed from the incubator and 10 μL HBSS/20 mM Hepes was added. […] Compound agonist activity was measured on a FLIPR Tetra (MDS). Calcium mobilization was monitored for 2 minutes and 10 μL 4× sample in HB SS/20 mM Hepes was added to the cells 5 seconds into the assay. Compound activity data was analyzed using CBIS data analysis suite (ChemInnovation, California). For agonist mode assays, percentage activity is calculated using the following formula: % Activity=100%×(mean RFU of test sample−mean RFU of vehicle control)/(mean MAX RFU control ligand−mean RFU of vehicle control). […]
as §3

5HT2A [1] = target: T2, 5HT2A (Homo sapiens, UniProt P28223); assay: PathHunter β-Arrestin assay, 5-HT2A
Experimental: PathHunter cell lines (DiscoveRx Eurofins) were expanded from freezer stocks according to standard procedures. Cells were seeded in a total volume of 20 μL into white walled, 384-well microplates and incubated at 37° C. for the appropriate time prior to testing. For agonist determination, cells were incubated with sample to induce response. Intermediate dilution of sample stocks was performed to generate 5× sample in assay buffer. 5 μL of 5× sample was added to cells and incubated at 37° C. or room temperature for 90 to 180 minutes. […] Microplates were read following signal generation with a PerkinElmer Envision™ instrument for chemiluminescent signal detection. Compound activity was analyzed using CBIS data analysis suite (ChemInnovation, California). For agonist mode assays, percentage activity was calculated using the following formula: % Activity=100%×(mean RLU of test sample−mean RLU of vehicle control)/(mean MAX control ligand−mean RLU of vehicle control). […]
as §3

5-HT1A = target: T3, 5-HT1A (Homo sapiens, UniProt P08908); assay: Calcium mobilization assay (Gq signaling), 5-HT1A
T3 sequence (P08908 1-422): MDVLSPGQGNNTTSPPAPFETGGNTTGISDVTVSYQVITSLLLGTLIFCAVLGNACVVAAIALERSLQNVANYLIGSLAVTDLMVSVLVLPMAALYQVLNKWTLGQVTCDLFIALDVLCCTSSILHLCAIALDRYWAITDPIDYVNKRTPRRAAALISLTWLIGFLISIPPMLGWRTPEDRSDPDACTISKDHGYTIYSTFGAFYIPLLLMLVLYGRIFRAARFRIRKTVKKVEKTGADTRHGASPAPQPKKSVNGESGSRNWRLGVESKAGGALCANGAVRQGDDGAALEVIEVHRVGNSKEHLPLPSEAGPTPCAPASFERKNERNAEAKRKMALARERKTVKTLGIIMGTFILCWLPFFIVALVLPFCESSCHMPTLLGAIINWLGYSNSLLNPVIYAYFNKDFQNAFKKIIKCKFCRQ
Experimental: as §1, §2, §3

5HT2A [2] = target: T2, 5HT2A; assay: Calcium mobilization assay (Gq signaling), 5-HT2A; details: for type of agonism of 5-HT2A mediated signaling: EC50 profiles, FIG. 1; for Emax: read-out: maximum effect level, Gq signaling
Experimental: as §1
Cell lines expressing the GPCR of interest were expanded from freezer stocks according to standard procedures. Cells were seeded in a total volume of 20 μL into black-walled, clear-bottom, Poly-D-lysine coated 384-well microplates and incubated at 37° C. for the appropriate time prior to testing. Assays were performed in 1× Dye Loading Buffer consisting of 1× Dye, 1× Additive A and 2.5 mM Probenecid in HB SS/20 mM Hepes. Probenicid was prepared fresh. Cells were loaded with dye prior to testing. Media was aspirated from cells and replaced with 20 μL Dye Loading Buffer. Cells were incubated for 30-60 minutes at 37° C. For agonist determination, cells were incubated with sample to induce response. After dye loading, cells were removed from the incubator and 10 μL HBSS/20 mM Hepes was added. 3× vehicle was included in the buffer when performing agonist dose curves to define the EC80 for subsequent antagonist assays. Cells were incubated for 30 minutes at room temperature in the dark to equilibrate plate temperature. Intermediate dilution of sample stocks was performed to generate 4× sample in assay buffer. Compound agonist activity was measured on a FLIPR Tetra (MDS). Calcium mobilization was monitored for 2 minutes and 10 μL 4× sample in HB SS/20 mM Hepes was added to the cells 5 seconds into the assay. Compound activity data was analyzed using CBIS data analysis suite (ChemInnovation, California). For agonist mode assays, percentage activity is calculated using the following formula: % Activity=100%×(mean RFU of test sample−mean RFU of vehicle control)/(mean MAX RFU control ligand−mean RFU of vehicle control). In these studies, the MAX RFU was generated by using 0.1 μM serotonin for the calcium mobilization assay.
as §3

5HT2A [3] = target: T2, 5HT2A; assay: 5HT2A Activity (% Max Activation @ 0.3 uM)

Sequence of 5-HT2B (P41595 whole entry): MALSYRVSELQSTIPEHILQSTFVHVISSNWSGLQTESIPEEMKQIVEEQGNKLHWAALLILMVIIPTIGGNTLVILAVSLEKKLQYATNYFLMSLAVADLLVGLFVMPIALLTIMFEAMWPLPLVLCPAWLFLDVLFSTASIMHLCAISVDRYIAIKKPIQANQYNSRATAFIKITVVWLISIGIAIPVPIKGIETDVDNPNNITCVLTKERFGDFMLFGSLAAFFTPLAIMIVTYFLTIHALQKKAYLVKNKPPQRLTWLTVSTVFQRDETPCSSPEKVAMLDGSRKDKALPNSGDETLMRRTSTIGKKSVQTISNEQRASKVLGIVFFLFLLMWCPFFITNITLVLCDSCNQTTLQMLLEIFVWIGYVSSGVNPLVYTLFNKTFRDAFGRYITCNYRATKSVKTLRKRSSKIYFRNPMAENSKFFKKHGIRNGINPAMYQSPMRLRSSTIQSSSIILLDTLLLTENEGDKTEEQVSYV
T2 sequence (P28223 whole entry): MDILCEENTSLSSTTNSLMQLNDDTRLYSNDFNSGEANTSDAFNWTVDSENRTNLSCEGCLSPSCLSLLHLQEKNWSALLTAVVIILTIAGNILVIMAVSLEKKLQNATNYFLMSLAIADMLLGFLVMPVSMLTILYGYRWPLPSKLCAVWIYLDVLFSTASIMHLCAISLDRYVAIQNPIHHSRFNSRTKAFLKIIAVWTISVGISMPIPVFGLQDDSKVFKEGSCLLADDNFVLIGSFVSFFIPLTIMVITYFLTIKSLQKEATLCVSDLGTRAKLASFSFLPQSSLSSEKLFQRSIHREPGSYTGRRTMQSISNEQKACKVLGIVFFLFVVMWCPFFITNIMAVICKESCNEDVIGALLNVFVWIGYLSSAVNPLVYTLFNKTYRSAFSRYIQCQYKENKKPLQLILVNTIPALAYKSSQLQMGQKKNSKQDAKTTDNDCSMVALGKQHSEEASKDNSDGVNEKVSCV

| Compound | EC50 (5-HT2C; Gq signaling, read-out: EC50, 5-HT2C (Gq signaling)) | EC50 (5-HT2B; Gq signaling, read-out: EC50, 5-HT2B (Gq signaling)) | EC50 (5HT2A [1]) | EC50 (5-HT1A; Gq signaling, read-out: EC50, 5-HT1A (Gq signaling)) | EC50 (5HT2A [2]) | type of agonism of 5-HT2A mediated signaling (5HT2A [2]) | Emax (5HT2A [2]) | Emax at 0.3 µM (5HT2A [3]) | EC50 (5-HT2C) | EC50 (5-HT2B) | activity at 5-HT2B (5-HT2B; concentrations less than 10 uM) | EC50 (5-HT1A) | selectivity for 5-HT2A over 5-HT2B (5HT2A [2]; 5-HT2A compared to 5-HT2B) |
| --- | --- | --- | --- | --- | --- | --- | --- | --- | --- | --- | --- | --- | --- |
| COc1ccc(OC)c2c1CCC(NCc1cc(C)cc(Cl)c1)C2 (centres unmarked) [1-1·HCl, N-(3-chloro-5-methylbenzyl)-5,8-dimethoxy-1,2,3,4-tetrahydronaphthalen-2-amine hydrochloride] | 10 µM | 23.2 µM | 0.172 µM | 17.2 µM | 0.134 µM | full-agonism | ~100% |  |  |  |  |  |  |
| COc1ccc(OC)c(CCNCc2cc(C)cc(Cl)c2)c1 [Compound 2-1, N-(3-chloro-5-methylbenzyl)-2-(2,5-dimethoxyphenyl)ethan-1-amine] |  |  | 0.023 µM |  | 0.01 µM | partial-agonist | ~86% | 98% | 0.091 µM | 44.1 µM | no appreciable activity | 24.7 µM | ~4400 fold |
